Results published in patent publication US12036262B2, “Edible plant-derived nanoparticles for regulation of gut microbiota” (University of Louisville Research Foundation, Inc., priority 2017, dated 2024).

Key:
[1] = system: SpaC fragment with ath-miR167a binding site; assay: SpaC-pGFPuv GFP reporter in E. coli (FACS); type: cell-based
Procedure: Plasmid Construction and Mutagenesis. The SpaC fragment (339-800, LGG RS02140) spanning the sequences of the potential target (710-717) of GELN ath-miR167a was obtained by PCR with cDNA from LGG RNA. PCR was performed using a Bio-Rad thermal cycler T100. The 462-bp PCR product amplified by the primer pair SpaC-pGFPuv-F: 5′-[…]-3′ (SEQ ID NO: 1) and SpaC-pGFPuv-R: 5′-[…]-3′ (SEQ ID NO: 2) was ligated into the Sphl and Xbal restriction enzyme sites of a pGFPuv vector (Takara Bio/Clontech, Mountain View, California, United States of America) to obtain a green fluorescent protein (GFP) expression reporter. SpaC-pGFPuv fused with the SpaC gene fragment, which can be expressed in prokaryotic cells. To generate mutants of SpaC, the oligonucleotide primers SpaCMut-F, 5′-[…] […]
Flow Cytometry. […] Data were acquired using a BD FACSCalibur flow cytometer (BD Biosciences, San Jose, California, United States of America) and analyzed using FlowJo software (Tree Star Inc., Ashland, Oregon, United States of America). To visualize bacteria stained with PKH26/67 and transformed with SpaC-pGFPuv plasmid, the PKH26/67-positive and GFP-positive bacteria were detected by flow cytometry using a BD FACSCalibur flow cytometer (BD Biosciences, San Jose, California, United States of America), and data were analyzed using FlowJo software (Tree Star Inc., Ashland, Oregon, United States of America).

[2] = system: LGG; assay: Bacterial translocation to peripheral blood and liver; type: in vivo; conditions: DSS-treated SPF and germ-free mice, compared with LGG alone
Procedure: Bacterial Translocation. Bacterial translocation from the murine gut to peripheral blood and liver was determined at the indicated times presented in the relevant figures after oral bacterial administration. Fifty microliters of anticoagulant blood were cultured on MRS agar for 48 h at 37° C. in an anaerobic chamber. Liver tissue samples were homogenized in 0.5% Triton X-100/PBS, and 100 μl of the homogenates were cultured on MRS agar plates. After 48 hours of incubation, CFUs were counted, and the results are expressed as number of bacteria detected/mL of blood or gram of liver.

ath-miR167a: GELN miRNA, SEQ ID NO: 9 (UGAAGCUGCCAGCAUGAUCUA; expressed or natural sequence)
GFP expression with mutation that disrupted the binding site [1]: entirely restored GFP expression
LGG migration into bloodstream and liver [2]: significantly reduced LGG translocation into the peripheral blood
